Consider one molecule from patent US20260023004A1, “SIGNAL ENHANCEMENT OF RESONANT SENSOR FOR CELL MEASUREMENTS” (lowa State University Research Foundation, Inc., priority 2022, published 2026).

This experiment relates to HeLa cells. In words: Inhibition of HeLa cell growth monitored by resonant sensor frequency shift and microscope images. In kind it is cell-based. As to conditions: Niclosamide at 15 μM in culture media. On the procedure: To investigate the inhibition effect of cell growth on the sensor response, HeLa cells were first grown until a drastic resonant frequency shift was observed. FIG. 11 is a plot of resonant frequency as a function of time shown as curve 537. Four times are identified as 5, 6, 7, and 8. FIG. 12 is a cell image at time 5 of FIG. 11. Niclosamide was introduced at time 6 of FIG. 11 into the culture media at 15 μM. […] FIG. 13 is a cell image at time 6 of FIG. 11. FIG. 14 is a cell image at time 7 of FIG. 11. FIG. 15 is a cell image at time 8 of FIG. 11.

As for `O=C(Nc1ccc([N+](=O)[O-])cc1Cl)c1cc(Cl)ccc1O` [Niclosamide], the “resonant frequency shift of sensor after introducing drug” value (HeLa cells grown until drastic resonant frequency shift) is “almost an instantaneous stop in the resonant frequency shift”. In addition, the “cell growth after introducing the drug (microscopic images)” value (HeLa cells) is on record as “stop of cell growth”.
